Measured values taken from patent US20070270400A1, “New compounds 303” (priority 2006, published 2007).

Experiments:
[1] = Metabolic stability in liver microsomes (intrinsic clearance); type: in vitro ADME; conditions: human, pH 7.4, HLM
Procedure: The rate of biotransformation can be measured as either metabolite(s) formation or the rate of disappearance of the parent compound. The experimental design involves incubation of low concentrations of substrate (usually 1.0 μM) with liver microsomes (usually 0.5 mg/ml) and taking out aliquotes at varying time points (usually 0, 5, 10, 15, 20, 30, 40 min.). The test compound is usually dissolved in DMSO. The DMSO concentration in the incubation mixture is usually 0.1% or less since more solvent can drastically reduce the activities of some CYP450s. Incubations are done in 100 mM potassium phosphate buffer, pH 7.4 and at 37° C. Acetonitrile or methanol is used to stop the reaction. The parent compound is analysed by HPLC-MS. From the calculated half-life, t1/2, the intrinsic clearance, Clint, is estimated by taking microsomal protein concentration and liver weight into account.

[2] = target: CYP3A4 (Homo sapiens, UniProt P08684); test: CYP3A4 inhibition according to Bapiro et al; type: in vitro ADME
Chain of CYP3A4 (P08684 whole entry): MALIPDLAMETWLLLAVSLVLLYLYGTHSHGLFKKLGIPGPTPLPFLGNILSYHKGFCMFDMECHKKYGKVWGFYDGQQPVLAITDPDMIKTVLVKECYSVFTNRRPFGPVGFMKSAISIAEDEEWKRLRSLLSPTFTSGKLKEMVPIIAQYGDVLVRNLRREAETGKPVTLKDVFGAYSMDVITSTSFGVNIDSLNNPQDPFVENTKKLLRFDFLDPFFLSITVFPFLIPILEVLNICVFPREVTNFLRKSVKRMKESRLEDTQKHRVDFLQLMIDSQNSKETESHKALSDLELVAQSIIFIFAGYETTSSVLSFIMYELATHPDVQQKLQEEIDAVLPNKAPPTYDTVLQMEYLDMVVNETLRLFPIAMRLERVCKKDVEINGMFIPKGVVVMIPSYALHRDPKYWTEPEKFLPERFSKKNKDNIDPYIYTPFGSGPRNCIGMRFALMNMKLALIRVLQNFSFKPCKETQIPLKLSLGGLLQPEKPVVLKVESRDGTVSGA
Procedure: The IC50 values tested according to Bapiro et al; Drug Metab. Dispos. 29, 30-35 (2001) were generally greater than 15 μM.

[3] = target: T1, human NK2 receptor (Homo sapiens, UniProt P21452); test: FLIPR assay, inhibition of human NK2 receptor activation (intracellular Ca2+); type: cell-based; conditions: CHO cells with human NK2 receptor, agonist NKA; pKB converted from IC50
T1 construct: expressed in transfected cells
T1 sequence (P21452 1-398): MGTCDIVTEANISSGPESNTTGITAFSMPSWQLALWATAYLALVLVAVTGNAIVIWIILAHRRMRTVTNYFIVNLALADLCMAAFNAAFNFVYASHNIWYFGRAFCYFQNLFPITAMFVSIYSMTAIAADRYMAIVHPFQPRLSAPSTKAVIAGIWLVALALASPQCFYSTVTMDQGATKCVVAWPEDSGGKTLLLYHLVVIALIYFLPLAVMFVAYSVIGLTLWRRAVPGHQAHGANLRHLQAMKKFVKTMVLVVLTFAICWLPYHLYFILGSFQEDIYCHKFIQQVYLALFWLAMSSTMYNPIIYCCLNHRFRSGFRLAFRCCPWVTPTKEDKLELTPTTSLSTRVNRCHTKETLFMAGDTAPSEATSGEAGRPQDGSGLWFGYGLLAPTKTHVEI
Procedure: (§1) Chinese Hamster Ovary (CHO) K1 cells (obtained from ATCC) were stably transfected with the human NK2 receptor (hNK2R cDNA in pRc/CMV, Invitrogen) or the human NK3 receptor (hNK3R in pcDNA 3.1/Hygro (+)/IRES/CD8, Invitrogen vector modified at AstraZeneca EST-Bio UK, Alderley Park). The cells were transfected with the cationic lipid reagent LIPOFECTAMINE™ (Invitrogen) and selection was performed with Geneticin (G418, Invitrogen) at 1 mg/ml for the hNK2R transfected cells and with Hygromycin (Invitrogen) at 500 μg/ml for the hNK3R transfected cells. Single cell clones were collected by aid of Fluorescence Activated Cell Sorter (FACS), tested for functionality in a FLIPR assay (see below), expanded in culture and cryopreserved for future use. […]
(§2) The activity of a compound of the invention to inhibit NK1/NK2/NK3 receptor activation measured as NK1/NK2/NK3 receptor mediated increase in intracellular Ca^2+ was assessed by the following procedure:
(§3) CHO cells stably transfected with human NK1, NK2 or NK3 receptors were plated in black walled/clear bottomed 96-well plates (Costar 3904) at 3.5×10^4 cells per well and grown for approximately 24 h in normal growth media in a 37° C. […] The response was measured as the peak relative fluorescence after agonist addition and IC50s were calculated from ten-point concentration-response curves for each compound. […]

[4] = target: T2, human NK3 receptor (Homo sapiens, UniProt P29371); test: FLIPR assay, inhibition of human NK3 receptor activation (intracellular Ca2+); type: cell-based; conditions: CHO cells with human NK3 receptor, agonist Pro-7-NKB; pKB converted from IC50
T2 construct: expressed in transfected cells
T2 sequence (P29371 1-465): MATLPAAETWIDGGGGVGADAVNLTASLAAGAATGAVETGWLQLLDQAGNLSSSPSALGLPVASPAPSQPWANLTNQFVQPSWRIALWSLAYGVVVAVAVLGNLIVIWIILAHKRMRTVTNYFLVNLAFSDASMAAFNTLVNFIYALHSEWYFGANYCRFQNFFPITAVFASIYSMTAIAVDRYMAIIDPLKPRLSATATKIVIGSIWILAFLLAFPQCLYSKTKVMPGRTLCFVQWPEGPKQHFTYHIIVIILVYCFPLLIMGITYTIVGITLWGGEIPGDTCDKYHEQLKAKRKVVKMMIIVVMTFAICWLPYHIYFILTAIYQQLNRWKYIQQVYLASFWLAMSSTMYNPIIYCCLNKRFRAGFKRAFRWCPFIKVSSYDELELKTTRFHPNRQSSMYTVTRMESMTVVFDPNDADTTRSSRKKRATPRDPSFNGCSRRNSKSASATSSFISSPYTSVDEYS
Procedure: as §1, §2, §3

[5] = target: T3, human NK1 receptor (Homo sapiens, UniProt P25103); test: FLIPR assay, inhibition of human NK1 receptor activation (intracellular Ca2+); type: cell-based; conditions: CHO cells with human NK1 receptor, agonist Substance P; pKB converted from IC50
T3 construct: expressed in transfected cells; AstraZeneca R&D Wilmington), pRcCMV vector
T3 sequence (P25103 whole entry): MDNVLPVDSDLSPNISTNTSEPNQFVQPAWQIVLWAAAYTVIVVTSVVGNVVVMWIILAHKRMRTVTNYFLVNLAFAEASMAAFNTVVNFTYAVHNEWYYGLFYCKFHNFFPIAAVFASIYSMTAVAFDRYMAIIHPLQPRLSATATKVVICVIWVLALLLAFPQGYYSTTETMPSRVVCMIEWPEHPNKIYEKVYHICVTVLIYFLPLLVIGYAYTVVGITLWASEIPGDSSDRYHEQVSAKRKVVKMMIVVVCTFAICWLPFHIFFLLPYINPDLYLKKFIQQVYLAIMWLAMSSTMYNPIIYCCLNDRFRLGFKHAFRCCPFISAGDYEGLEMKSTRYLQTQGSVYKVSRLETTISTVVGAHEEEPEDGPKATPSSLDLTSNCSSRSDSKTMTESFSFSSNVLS
Procedure: as §1, §2, §3

[6] = target: hERG-encoded potassium channel (Homo sapiens, UniProt Q12809); test: Activity against hERG, planar-array-based voltage clamp; type: cell-based
Chain of hERG-encoded potassium channel (Q12809 whole entry): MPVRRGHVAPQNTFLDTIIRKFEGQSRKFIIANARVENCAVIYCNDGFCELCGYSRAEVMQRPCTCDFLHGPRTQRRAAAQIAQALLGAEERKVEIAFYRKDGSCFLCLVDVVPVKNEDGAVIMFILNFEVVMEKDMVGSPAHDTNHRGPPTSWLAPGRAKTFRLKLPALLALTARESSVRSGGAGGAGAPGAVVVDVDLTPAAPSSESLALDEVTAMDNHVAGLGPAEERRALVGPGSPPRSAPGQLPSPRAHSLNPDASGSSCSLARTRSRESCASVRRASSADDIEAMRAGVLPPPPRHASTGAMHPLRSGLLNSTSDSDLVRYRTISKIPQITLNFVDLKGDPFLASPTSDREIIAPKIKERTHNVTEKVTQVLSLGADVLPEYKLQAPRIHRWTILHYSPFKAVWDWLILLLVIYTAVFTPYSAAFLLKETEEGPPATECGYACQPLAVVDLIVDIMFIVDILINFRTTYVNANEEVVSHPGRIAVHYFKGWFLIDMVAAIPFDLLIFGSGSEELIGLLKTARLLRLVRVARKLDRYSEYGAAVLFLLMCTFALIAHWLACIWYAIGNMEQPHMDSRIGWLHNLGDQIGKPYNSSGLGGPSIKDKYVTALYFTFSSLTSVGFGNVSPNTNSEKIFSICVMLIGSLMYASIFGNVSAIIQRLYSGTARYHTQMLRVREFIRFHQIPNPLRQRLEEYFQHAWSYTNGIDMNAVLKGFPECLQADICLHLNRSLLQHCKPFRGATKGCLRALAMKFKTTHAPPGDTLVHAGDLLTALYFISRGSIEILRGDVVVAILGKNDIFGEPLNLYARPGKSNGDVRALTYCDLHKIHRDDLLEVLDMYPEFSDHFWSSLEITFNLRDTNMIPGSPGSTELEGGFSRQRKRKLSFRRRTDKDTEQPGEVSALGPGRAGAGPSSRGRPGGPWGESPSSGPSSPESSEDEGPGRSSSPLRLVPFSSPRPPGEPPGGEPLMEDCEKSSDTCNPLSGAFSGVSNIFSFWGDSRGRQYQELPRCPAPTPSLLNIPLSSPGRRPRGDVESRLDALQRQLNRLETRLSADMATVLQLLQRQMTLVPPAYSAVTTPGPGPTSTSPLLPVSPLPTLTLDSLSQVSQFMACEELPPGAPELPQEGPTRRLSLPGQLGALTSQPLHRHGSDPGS
Text: The activity of compounds according to formula I against the hERG-encoded potassium channel can be determined according to Kiss L, et al. Assay Drug Dev Technol. 1 (2003), 127-35: “High throughput ion-channel pharmacology: planar-array-based voltage clamp”.

With `CC(C)C(=O)N1CCN(C2CN(CC[C@H](CN(C)C(=O)c3cc(Cl)cc(C(F)(F)F)c3)c3ccc(F)cc3)C2)CC1` [Ex 2, 3-Chloro-N-{(2S)-2-(4-fluorophenyl)-4-[3-(4-isobutyrylpiperazin-1-yl)azetidin-1-yl]butyl}-N-methyl-5-(trifluoromethyl)benzamide] the microsomal CLint at 1 μM [1] was 36 µL/min/mg, the IC50 [2] was 18300 nM and the Kb [3] was 31.6 nM. For the same molecule, the Kb [4] was 63.1 nM, the Kb [5] was 10 nM and the IC50 [6] was 6600 nM.
